Experimental data as given in patent US9932479B2, “Dyes and compositions, and processes for using same in analysis of protein aggregation and other applications” (Enzo Biochem, Inc., priority 2009, dated 2018).

Tests used:
[1] = biological target: T1, Hen Egg White Lysozyme (Gallus gallus, UniProt P00698); assay: Inhibition of Lysozyme aggregation at pH 12.2, S-25/Tol3 readout; type: biochemical; conditions: 510 μM Chitotriose, 300 μM Lysozyme, aggregation induced at pH 12.2
T1 construct: Hen egg white lysozyme was solubilized in 10 mM HCl; from tissue; host or cells: hen egg white
T1 sequence (P00698 19-147): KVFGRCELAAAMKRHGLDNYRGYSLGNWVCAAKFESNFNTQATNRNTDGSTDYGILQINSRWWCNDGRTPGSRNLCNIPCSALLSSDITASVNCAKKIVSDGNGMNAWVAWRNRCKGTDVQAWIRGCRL
Description: Hen egg white Lysozyme (300 μM) was incubated with or without N,N′,N″-triacetyl-chitotriose (Chitotriose, 510 μM) in 10 mM potassium phosphate, pH 7.3 for 16 hours. Aggregation was induced by 3.5 fold dilution into 50 mM potassium phosphate, pH 12.2. Aggregation was followed by removing an aliquot of the protein and diluting such that the final composition was 20 μM protein, 50 mM potassium phosphate, pH 7, 3 μM S-25 and 3 μM Tol3. Protein was incubated with dye for 15 minutes prior to determining the fluorescence using a BioTek Synergy Mx plate scanner, with excitation setting at 515 nm and emission setting at 603 nm, both with a 9 nm slit-width. The zero time point was taken before dilution to pH 12.2. Readings were taken in at least triplicate in a Greiner μClear black, clear bottom 96-well microplate. Aggregation was followed for several weeks at room temperature (19°-23° C.).

[2] = biological target: T2, β-lactoglobulin (BLG) (Bos taurus, UniProt P02754); assay: Thermal shift assay of BLG aggregation; type: binding; conditions: BLG 4 or 16 mg/mL, heating 28° C. to 90° C.
T2 sequence (P02754 17-178): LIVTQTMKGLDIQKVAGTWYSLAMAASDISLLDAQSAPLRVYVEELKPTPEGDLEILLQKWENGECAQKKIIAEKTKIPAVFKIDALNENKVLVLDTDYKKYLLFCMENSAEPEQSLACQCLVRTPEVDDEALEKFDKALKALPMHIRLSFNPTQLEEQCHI
Description: A solution containing 4 or 16 mg/mL of β-lactoglobulin (BLG) and 2×SYPRO® Orange dye (Molecular Probes, supplied as 5000× with unknown concentration) or 4 μM TOL3 or 4 μM S25 was prepared using 1×PBS, pH 7.4 as the dilution buffer. This solution was then loaded into LightCycler® capillaries (20 μL, Roche Diagnostics GmbH). These capillaries were then mounted on the sample holder of a LightCycler® 480 Real-Time PCR System (Roche), programmed to heat from 28° C. to 90° C. at 3° C./min, followed by cooling down to 28° C. at the same rate. The thermal shift curves were achieved by plotting fluorescence intensity vs. temperature. After the heating cycle, protein aggregates were visually apparent.

[3] = tested on: goat-anti-mouse IgG aggregate; assay: Fluorescence enhancement (aggregate/native IgG) in the presence of excipients; type: binding; conditions: for Fluorescence enhancement (aggregate/native IgG): 2.8 μM IgG, 0.625 μM dye; for Fluorescence enhancement (aggregate/native IgG), Average: Average over all excipient conditions
Description: IgG aggregate was prepared by adjusting 5.83 mg/ml of purified goat-anti-mouse IgG (H&L, Pel Freez, Rogers, Ark.) to pH 2.7 using HCl and incubating at 22° C. for 24 hours. The assay was performed using 2.8 μM IgG, either native or aggregated, and a dye concentration of 0.625 μM. The protein and dye were mixed together for 15 minutes at 22° C., then this was further incubated in the presence of the excipients shown in the table. The fluorescence intensity of S-25, Tol3 and Y2150 were determined with a FLUOstar OPTIMA plate reader (BMG LABTECH) at excitation wavelength of 550 nm and emission wavelength of 610 nm; while the fluorescence intensity for Thioflavin-T was determined using a SpectraMAX GeminiXS (Molecular device, with Softmax Pro 7.0) using an excitation wavelength of 435 nm and emission wavelength of 495 nm. The fluorescence enhancement (aggregate/native IgG) is shown.

[4] = tested on: Rabbit-anti-goat IgG; assay: Fluorescence response to unfolded versus aggregated IgG in 4.55 M urea; type: binding; conditions: 6.67 μM Tol3
Description: (B) A solution containing aggregated IgG (formed as in Example 13 (B)) or monomeric IgG at 0.033 mg/mL, 4.55 M urea and 6.67 μM Tol3 was prepared and transferred into a microplate. After incubating at 4° C. degree for about 10 minutes, the fluorescence was recorded. Two control solutions without IgG, but with the same concentration of TOl3, were included, one including 4.55M urea, another without urea. From the previous chemical shift curve generated (seen in FIG. 16 (A)), 4.55 M urea is known to unfold approximately 60% of the IgG.

[5] = biological target: T3, recombinant human alpha-synuclein (ASN) aggregate (Homo sapiens, UniProt P37840); assay: Fluorescence excitation and emission spectra of dye in the presence of aggregated alpha-synuclein; type: binding; conditions: 1 μM aggregated ASN, 50 mM Tris-HCl, pH 7.8, 10 μM dye
T3 construct: purchased Sigma-Aldrich
Description: (§1) Fluorescent readings were carried out in 50 mM Tris-HCl, pH 7.8 using 10 μM dye. […] Fluorescence excitation and emission spectra were collected on a Cary Eclipse fluorescence spectrophotometer (Varian, Australia). Fluorescence spectra were measured with excitation and emission slit widths set to 5 nm, and at a constant PMT voltage. Spectroscopic measurements were performed in standard quartz cells. All measurements were made at the respective excitation maxima of each dye. All measurements were carried out at room temperature.

[6] = Fluorescence excitation and emission spectra of dye freely dissolved in buffer; type: physicochemical; conditions: 50 mM Tris-HCl, pH 7.8, 10 μM dye, room temperature
Description: as §1

[7] = tested on: Rabbit-anti-goat IgG; assay: Chemical shift assay based on internal tryptophan fluorescence; type: biochemical; conditions: 4.55 M urea; from chemical shift curve FIG. 16 (A)
Description: (A) Chemical shift assay based on internal tryptophan fluorescence: Rabbit-anti-goat IgG (Pel Freeze) in 1×PBS buffer of pH 7.4 was mixed with urea in 1×PBS to achieve a final IgG concentration of 0.25 mg/mL. After mixing on ice for 10 minutes, the fluorescence emission intensity at 330 nm was recorded by exciting at 280 nm using a MD-5020 fluorimeter (Phototechnology International). A chemical shift curve was plotted based on internal tryptophan fluorescence intensity at each given urea concentration. Urea denatures proteins but prevents them from aggregating.

Detection of BLG thermal shift (melting) peak [2]	SMILES	Fluorescence enhancement (aggregate/native IgG) ([3]; Ammonium Sulfate, 10 mM)	Fluorescence enhancement (aggregate/native IgG) ([3]; Ammonium Sulfate, 100 mM)	Fluorescence enhancement (aggregate/native IgG) ([3]; Ammonium Sulfate, 300 mM)	Fluorescence enhancement (aggregate/native IgG) ([3]; Arginine, 200 mM)	Fluorescence enhancement (aggregate/native IgG) ([3]; Arginine, 500 mM)	Fluorescence enhancement (aggregate/native IgG) ([3]; Ascoric Acid, 1 mM)	Fluorescence enhancement (aggregate/native IgG), Average [3]	Fluorescence enhancement (aggregate/native IgG) ([3]; Calcium Chloride, 10 mM)	Fluorescence enhancement (aggregate/native IgG) ([3]; Calcium Chloride, 50 mM)	Fluorescence enhancement (aggregate/native IgG) ([3]; Calcium Chloride, 200 mM)	Fluorescence enhancement (aggregate/native IgG) ([3]; DTT, 1 mM)	Fluorescence enhancement (aggregate/native IgG) ([3]; Glycine, 0.5%)	Fluorescence enhancement (aggregate/native IgG) ([3]; Glycine, 2%)	Fluorescence enhancement (aggregate/native IgG) ([3]; Lactose, 100 mM)	Fluorescence enhancement (aggregate/native IgG) ([3]; Lactose, 300 mM)	Fluorescence enhancement (aggregate/native IgG) ([3]; Mannitol, 100 mM)	Fluorescence enhancement (aggregate/native IgG) ([3]; Mannitol, 300 mM)	Fluorescence enhancement (aggregate/native IgG) ([3]; Mannitol, 600 mM)	Fluorescence enhancement (aggregate/native IgG) ([3]; Sodium Chloride, 10 mM)	further results
	CC(=O)N[C@H]1[C@H](O[C@H]2[C@H](O)[C@@H](NC(C)=O)C(O)O[C@@H]2CO)O[C@H](CO)[C@@H](O[C@@H]2O[C@H](CO)[C@@H](O)[C@H](O)[C@H]2NC(C)=O)[C@@H]1O (stereo partly drawn) [Chitotriose, N,N′,N″-triacetyl-chitotriose]																				Effect on Lysozyme aggregation [1]: inhibits Lysozyme aggregation
able to detect BLG thermal shift peaks	Cc1c[n+](CCCCCCCCCC[n+]2ccc(/C=C/c3ccc(N(C)C)cc3)c(C)c2)ccc1/C=C/c1ccc(N(C)C)cc1 [TOL3]	15.6 fold	13.4 fold	16.9 fold	18.6 fold	17.6 fold	15.4 fold	17.6 fold	14.9 fold	13.9 fold	14.8 fold	13.8 fold	16.3 fold	15.5 fold	19.9 fold	34.6 fold	17.5 fold	25.2 fold	27.5 fold	16.0 fold	Fluorescence enhancement (aggregate/native IgG) ([3]; Sodium Chloride, 100 mM): 16.2 fold; Fluorescence enhancement (aggregate/native IgG) ([3]; Sodium Chloride, 1000 mM): 17.4 fold; Fluorescence enhancement (aggregate/native IgG) ([3]; Sorbitol, 100 mM): 20.0 fold; Fluorescence enhancement (aggregate/native IgG) ([3]; Sorbitol, 300 mM): 19.2 fold; Fluorescence enhancement (aggregate/native IgG) ([3]; Sorbitol, 600 mM): 29.3 fold; Fluorescence enhancement (aggregate/native IgG) ([3]; Trehalose, 100 mM): 18.9 fold; Fluorescence enhancement (aggregate/native IgG) ([3]; Trehalose, 300 mM): 20.1 fold; Fluorescence enhancement (aggregate/native IgG) ([3]; Trehalose, 600 mM): 30.4 fold; Fluorescence enhancement (aggregate/native IgG) ([3]; Tween 20, 0.01%): 8.5 fold; Fluorescence enhancement (aggregate/native IgG) ([3]; Tween 20, 0.2%): 3.4 fold; Fluorescence enhancement (aggregate/native IgG) ([3]; X100, 0.01%): 6.2 fold; Fluorescence enhancement (aggregate/native IgG) ([3]; X100, 0.2%): 3.4 fold; Fluorescence enhancement (aggregate/native IgG) ([3]; X100, 1%): 1.9 fold; Fluorescence enhancement with IgG aggregates relative to controls without IgG ([4]; aggregated IgG 0.033 mg/mL): significant fluorescence enhancement; Fluorescence enhancement with unfolded IgG monomer relative to controls without IgG ([4]; monomeric IgG 0.033 mg/mL): insignificant fluorescence enhancement; In the presence of aggregate: Emission wavelength [5]: 603 nm; In the presence of aggregate: Excitation wavelength [5]: 511 nm; Dye freely dissolved in buffer: Emission wavelength [6]: 611 nm; Dye freely dissolved in buffer: Excitation wavelength [6]: 471 nm
able to detect BLG thermal shift peaks	CN(C)c1ccc(/C=C/c2cc[n+](CCCCCC[n+]3ccc(/C=C/c4ccc(N(C)C)cc4)cc3)cc2)cc1.CS(=O)(=O)[O-].CS(=O)(=O)[O-] [Dye S25]	15.4 fold	14.6 fold	13.3 fold	14.8 fold	13.5 fold	13.9 fold	19.3 fold	9.7 fold	9.6 fold	6.7 fold	13.2 fold	14.1 fold	15.1 fold	23.0 fold	38.9 fold	16.7 fold	15.2 fold	20.9 fold	14.0 fold	Fluorescence enhancement (aggregate/native IgG) ([3]; Sodium Chloride, 100 mM): 13.6 fold; Fluorescence enhancement (aggregate/native IgG) ([3]; Sodium Chloride, 1000 mM): 11.7 fold; Fluorescence enhancement (aggregate/native IgG) ([3]; Sorbitol, 100 mM): 16.4 fold; Fluorescence enhancement (aggregate/native IgG) ([3]; Sorbitol, 300 mM): 21.0 fold; Fluorescence enhancement (aggregate/native IgG) ([3]; Sorbitol, 600 mM): 25.4 fold; Fluorescence enhancement (aggregate/native IgG) ([3]; Trehalose, 100 mM): 17.8 fold; Fluorescence enhancement (aggregate/native IgG) ([3]; Trehalose, 300 mM): 32.1 fold; Fluorescence enhancement (aggregate/native IgG) ([3]; Trehalose, 600 mM): 30.1 fold; Fluorescence enhancement (aggregate/native IgG) ([3]; Tween 20, 0.01%): 70.8 fold; Fluorescence enhancement (aggregate/native IgG) ([3]; Tween 20, 0.2%): 26.7 fold; Fluorescence enhancement (aggregate/native IgG) ([3]; X100, 0.01%): 19.2 fold; Fluorescence enhancement (aggregate/native IgG) ([3]; X100, 0.2%): 7.3 fold; Fluorescence enhancement (aggregate/native IgG) ([3]; X100, 1%): 2.9 fold; In the presence of aggregate: Emission wavelength [5]: 607 nm; In the presence of aggregate: Excitation wavelength [5]: 516 nm; Dye freely dissolved in buffer: Emission wavelength [6]: 613 nm; Dye freely dissolved in buffer: Excitation wavelength [6]: 485 nm
	NC(N)=O [urea]																				IgG unfolded [7]: approximately 60%
